Measured values reported in publication PMC6560211, “ApoAI-derived peptide increases glucose tolerance and prevents formation of atherosclerosis in mice” (Diabetologia, 2019).
No end group written: not given here.

Assays:
[1] = Peptide homogeneity (particle size) by dynamic light scattering; format: physicochemical
Description: Peptide (lyophilised powder) produced by Red Glead (Lund, Sweden) was reconstituted in Milli-Q water and then either used directly or mixed in a 1:1 ratio with 6 mol/l guanidine HCl in 2× PBS to give a monodisperse solution, followed by desalting using a column equilibrated with PBS, pH 7.4, using ÄKTAxpress fast protein LC (GE Healthcare, Uppsala, Sweden). Peptide integrity was analysed using circular dichroism spectroscopy. Peptide solubility was assayed at Red Glead using HPLC. Peptide stability in physiologic buffer or blood plasma (human or mouse) over 2 h was assayed at the Science for Life Laboratory (Uppsala, Sweden). For detailed methods, please refer to the electronic supplementary material (ESM) Methods.
The peptide RG54 was synthesised with natural amino acids and then modified with an acetylation cap on the N-terminus in order to reduce the susceptibility for proteolytic degradation by […] (ESM Fig. 3a). […] Peptide integrity following the denaturation/refolding procedure was confirmed using gel electrophoresis and circular dichroism spectroscopy analyses (ESM Fig. 3d,e) and by peptide stability assays (buffer or plasma) (ESM Fig. 3f).
ESM Figure 3. Peptide characterization for native or refolded RG54.
(a) Full peptide sequence. Particle size distribution of RG54 was analysed by DLS and frequency curves generated for Native (b) or Refolded (c) peptide. […]

[2] = rHDL formation, particle size by DLS; settings: 1:100 protein:lipid molar ratio, extruded 100 nm MLVs, 4 days (96 h), 24°C
Description: 1,2-dimyristoyl-sn-glycero-3-phosphocholine (DMPC; Avanti Polar Lipids, Alabaster, AL, USA) was formed into 100 nm multilamellar vesicles (MLV) via extrusion using the LiposoFast system (Avestin, Ottawa, ON, Canada) as previously described. MLV were incubated with RG54 or ApoA-I at the indicated ratios for 4 days at 24°C to form rHDL. The resulting particle sizes were measured by dynamic light scattering (DLS) using a Zetasizer APS (Malvern Instruments, Uppsala, Sweden).
The reduced initial rate may be due to a more complex binding pattern of the larger number of RG54 peptides needed per formed particle: four to five RG54 molecules (54 amino acids each) are needed to make up the size of full-length ApoA-I (243 amino acids). A qualitative assessment of particle formation was therefore next used to evaluate and compare the sizes of formed rHDL. The hydrodynamic diameters of lipid–protein complexes formed after extended incubation (96 h) of RG54 or ApoA-I with extruded 100 nm MLVs were estimated using DLS.
ESM Figure 4. Lipid clearance and peptide-lipid complex formation activity of RG54 compared with full-length ApoA-I. […]

Q: For “Ac-AEYHAKATEHLSTLSEKAKPALEDLRQGLLPVLESFKVSFLSALEEYTKKLNTQ [RG54]”, which “homogeneity (DLS) after chemical denaturation and refolding” value ([1]; 6 mol/l guanidine HCl in 2x PBS 1:1, desalted into PBS pH 7.4) is on record?
A: Its value is “monodisperse preparations”.

Q: What about the “homogeneity, dynamic size range (DLS)” value ([1]; native peptide reconstituted in Milli-Q water, five individual experiments) of the same substance?
A: The value was “significant inter- and intra-sample heterogeneity”.

Q: What about the “lipid-protein complexes formed (DLS frequency plots)” value [2] of the same substance?
A: The value was “single peaks corresponding to rHDL particles”.
